Experimental data from PMC9571063 (Molecules, 2022).
Where a name gives a salt, the structure may show the parent alone. Read-outs that look alike come from different tables or passages of the source.

Legend:
Hs_CDK5/p25 = target: T1, Hs_CDK5/p25 (Homo sapiens, UniProt Q00535); assay: ADP-Glo kinase assay, primary screen; assay type: biochemical; conditions: n=2, read-out: % of residual activity Hs_CDK5/p25
T1 construct: host or cells: bacteria

[1] = cytotoxic assay, nuclei count (Hoechst, HCS); assay type: cell-based, human; conditions: human, human skin fibroblasts (non-cancerous reference cells); 48 h treatment; some cells add low/moderate/high amplitude; read-out: Cytotoxic studies IC50 Fibroblasts
Method: (§1) To complete our study, we performed a cytotoxicity screening of the 15 molecules, investigating 7 representative cancer cell lines. The compound’s effect on cell viability was evaluated on Huh-7 (hepatocellular carcinoma), CaCo2, HCT-116 (colorectal adenocarcinoma), MCF7, MDA-MB231, MDA-MB468 (breast carcinoma), PC3 (prostate carcinoma) and NCI-H727 (lung carcinoid). Human skin fibroblasts were used as reference for non-cancerous cells. Roscovitine, Doxorubicin and Taxol were used as positive controls. The cells were treated for 48 h with 25 µM compounds and fixed in cooled 90% ethanol/5% acetic acid for 20 min. The nuclei were stained with Hoechst 33342 and counted using HCS technology.
(§2) HuH7, CaCo-2, MDA-MB-231, HCT116, PC3, MCF7 and NCI-H727 cancer cell lines were obtained from the ECACC collection (Porton Down, UK). Cells were grown at 37 °C, 5% CO2 in ECACC recommended media: DMEM for HuH7, MDA-MB-231 and fibroblast, EMEM for MCF7and CaCo-2, McCoy’s for HCT116 and RPMI for PC3 and NCI-H727. All culture media were supplemented with 10% of FBS, 1% of penicillin-streptomycin and 2 mM glutamine.
(§3) Chemicals were solubilized in DMSO at a concentration of 10 mM (stock solution) and diluted in culture medium to the desired final concentrations.
(§4) The cytotoxic assay of chemical was performed at 25 µM. Cells were plated in 96 wells plates (4000 cells/well). Twenty-four hours after seeding, cells were exposed to chemicals. After 48 h of treatment, cells were washed in PBS and fixed in cooled 90% ethanol/5% acetic acid for 20 min and the nuclei were stained with Hoechst 33342 (B2261 Sigma). Image acquisition and analysis were performed using a CellomicsArrayScan VTI/HCS Reader (ThermoScientific, Waltham, MA, USA). The survival percentages were calculated as the percentage of cell number after compound treatment over cell number after DMSO treatment.

Hs_CK1ε = target: T2, Hs_CK1ε (Homo sapiens, UniProt P49674); assay: ADP-Glo kinase assay, primary screen; assay type: biochemical; conditions: n=2, read-out: % of residual activity Hs_CK1ε
T2 construct: host or cells: Sf9 insect cells (baculovirus)
T2 sequence (P49674 whole entry): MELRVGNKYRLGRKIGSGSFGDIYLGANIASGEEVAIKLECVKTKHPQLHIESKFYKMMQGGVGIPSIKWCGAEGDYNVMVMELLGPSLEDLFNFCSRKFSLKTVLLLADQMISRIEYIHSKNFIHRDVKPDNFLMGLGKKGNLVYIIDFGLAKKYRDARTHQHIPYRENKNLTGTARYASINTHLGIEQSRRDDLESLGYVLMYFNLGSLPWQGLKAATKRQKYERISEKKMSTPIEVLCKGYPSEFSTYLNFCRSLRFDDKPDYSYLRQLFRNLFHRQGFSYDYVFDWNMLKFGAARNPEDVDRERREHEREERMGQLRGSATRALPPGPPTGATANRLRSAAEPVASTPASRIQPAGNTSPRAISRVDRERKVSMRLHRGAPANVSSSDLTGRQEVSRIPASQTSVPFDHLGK

[2] = cytotoxic assay, nuclei count (Hoechst, HCS); assay type: cell-based; conditions: human, 48 h treatment
Method: as §1, §2, §3
[…] Cells were plated in 96 wells plates (4000 cells/well). Twenty-four hours after seeding, cells were exposed to chemicals. After 48 h of treatment, cells were washed in PBS and fixed in cooled 90% ethanol/5% acetic acid for 20 min and the nuclei were stained with Hoechst 33342 (B2261 Sigma). Image acquisition and analysis were performed using a CellomicsArrayScan VTI/HCS Reader (ThermoScientific, Waltham, MA, USA). The survival percentages were calculated as the percentage of cell number after compound treatment over cell number after DMSO treatment.

Hs_HASPIN = target: T3, Hs_HASPIN (Homo sapiens, UniProt Q8TF76); assay: ADP-Glo kinase assay, primary screen; assay type: biochemical; conditions: n=2, read-out: % of residual activity Hs_HASPIN
T3 construct: host or cells: bacteria
T3 sequence (Q8TF76 1-798): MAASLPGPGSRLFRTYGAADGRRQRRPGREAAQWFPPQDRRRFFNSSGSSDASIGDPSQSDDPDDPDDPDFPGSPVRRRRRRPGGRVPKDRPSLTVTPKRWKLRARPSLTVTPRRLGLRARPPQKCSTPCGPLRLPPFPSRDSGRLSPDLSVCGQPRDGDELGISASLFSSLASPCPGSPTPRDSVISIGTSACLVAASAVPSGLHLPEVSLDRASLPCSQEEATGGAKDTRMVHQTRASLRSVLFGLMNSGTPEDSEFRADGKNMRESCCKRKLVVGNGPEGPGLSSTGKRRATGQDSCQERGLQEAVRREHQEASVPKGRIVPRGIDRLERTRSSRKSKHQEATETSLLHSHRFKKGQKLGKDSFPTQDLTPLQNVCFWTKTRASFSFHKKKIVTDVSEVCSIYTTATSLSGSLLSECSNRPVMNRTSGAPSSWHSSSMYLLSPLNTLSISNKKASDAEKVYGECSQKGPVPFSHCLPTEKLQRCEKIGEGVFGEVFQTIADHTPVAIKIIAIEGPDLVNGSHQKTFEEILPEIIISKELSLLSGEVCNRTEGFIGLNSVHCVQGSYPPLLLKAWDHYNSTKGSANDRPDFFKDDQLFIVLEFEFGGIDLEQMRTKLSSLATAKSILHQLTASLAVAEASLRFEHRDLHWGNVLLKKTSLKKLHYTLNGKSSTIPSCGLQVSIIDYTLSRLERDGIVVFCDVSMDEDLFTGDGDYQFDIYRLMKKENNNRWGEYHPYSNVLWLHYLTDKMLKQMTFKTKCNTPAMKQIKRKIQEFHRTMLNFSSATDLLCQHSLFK

Hs_GSK3β = target: T4, Hs_GSK3β (Homo sapiens, UniProt P49841); assay: ADP-Glo kinase assay, primary screen; assay type: biochemical; conditions: n=2, read-out: % of residual activity Hs_GSK3β
T4 construct: host or cells: Sf9 insect cells (baculovirus)
T4 sequence (P49841 whole entry): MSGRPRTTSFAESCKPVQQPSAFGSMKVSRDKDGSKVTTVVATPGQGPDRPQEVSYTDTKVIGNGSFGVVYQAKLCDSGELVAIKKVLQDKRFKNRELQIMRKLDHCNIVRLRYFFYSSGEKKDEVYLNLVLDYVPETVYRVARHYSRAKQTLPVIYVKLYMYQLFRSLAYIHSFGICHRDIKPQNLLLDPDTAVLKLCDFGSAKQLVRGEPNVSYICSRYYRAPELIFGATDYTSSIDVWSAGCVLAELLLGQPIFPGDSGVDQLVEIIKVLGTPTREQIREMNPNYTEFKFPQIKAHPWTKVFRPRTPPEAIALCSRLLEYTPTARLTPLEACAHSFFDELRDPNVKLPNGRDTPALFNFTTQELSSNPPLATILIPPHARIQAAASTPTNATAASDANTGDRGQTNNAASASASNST

Rn_DYRK1A = target: T5, Rn_DYRK1A (Rattus norvegicus, UniProt Q63470); assay: ADP-Glo kinase assay, primary screen; assay type: biochemical; conditions: n=2, read-out: % of residual activity Rn_DYRK1A
T5 construct: host or cells: bacteria

[3] = cytotoxic assay, nuclei count (Hoechst, HCS); assay type: cell-based; conditions: human, MDA-MB-231 cells (breast carcinoma); 48 h treatment; read-out: Cytotoxic studies IC50 MDA-MB-231
[4] = cytotoxic assay, nuclei count (Hoechst, HCS); assay type: cell-based; conditions: human, MCF7 cells (breast carcinoma); 48 h treatment; read-out: Cytotoxic studies IC50 MCF7
Method: as §1, §2, §3, §4

[5] = cytotoxic assay, nuclei count (Hoechst, HCS); assay type: cell-based; conditions: human, HuH7 cells (hepatocellular carcinoma); 48 h treatment; read-out: Cytotoxic studies IC50 HuH7
[6] = cytotoxic assay, nuclei count (Hoechst, HCS); assay type: cell-based; conditions: human, Caco-2 cells (colorectal adenocarcinoma); 48 h treatment; read-out: Cytotoxic studies IC50 Caco2
MmCLK1 = target: T6, MmCLK1 (Mus musculus, UniProt P22518); assay: ADP-Glo kinase assay; assay type: biochemical; conditions: for remaining activity at 1 µM / remaining activity at 10 µM: n=2, read-out: % of residual activity Mm_CLK1
T6 construct: host or cells: bacteria
T6 sequence (P22518 whole entry): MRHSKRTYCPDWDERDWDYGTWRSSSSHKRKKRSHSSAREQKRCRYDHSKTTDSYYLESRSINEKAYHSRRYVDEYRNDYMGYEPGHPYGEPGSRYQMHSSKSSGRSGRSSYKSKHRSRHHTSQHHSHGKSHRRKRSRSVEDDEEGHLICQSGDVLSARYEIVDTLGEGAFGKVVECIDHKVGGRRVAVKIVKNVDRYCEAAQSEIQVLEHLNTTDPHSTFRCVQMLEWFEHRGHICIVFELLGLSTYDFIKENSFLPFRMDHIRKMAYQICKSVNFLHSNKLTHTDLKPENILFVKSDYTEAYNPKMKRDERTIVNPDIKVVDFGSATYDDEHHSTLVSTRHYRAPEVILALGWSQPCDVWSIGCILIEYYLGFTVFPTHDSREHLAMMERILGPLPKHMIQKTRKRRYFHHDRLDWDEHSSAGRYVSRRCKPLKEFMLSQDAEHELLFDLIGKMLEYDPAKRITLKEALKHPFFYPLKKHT

Hs_PIM1 = target: T7, Hs_PIM1 (Homo sapiens, UniProt P11309); assay: ADP-Glo kinase assay, primary screen; assay type: biochemical; conditions: n=2, read-out: % of residual activity Hs_PIM1
T7 construct: host or cells: Sf9 insect cells (baculovirus)
T7 sequence (P11309 whole entry): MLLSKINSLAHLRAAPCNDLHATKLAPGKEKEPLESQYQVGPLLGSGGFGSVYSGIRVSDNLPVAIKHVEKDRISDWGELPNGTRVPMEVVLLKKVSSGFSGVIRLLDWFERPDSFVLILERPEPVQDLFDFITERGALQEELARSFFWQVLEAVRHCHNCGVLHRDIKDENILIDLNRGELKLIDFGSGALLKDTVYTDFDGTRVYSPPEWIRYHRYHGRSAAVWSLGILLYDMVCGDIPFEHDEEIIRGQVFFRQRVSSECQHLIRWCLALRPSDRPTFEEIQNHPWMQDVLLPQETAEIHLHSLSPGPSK

HsDYRK1A = target: T8, HsDYRK1A (Homo sapiens, UniProt Q13627); assay: ADP-Glo kinase assay; assay type: biochemical; conditions: for remaining activity at 1 µM / remaining activity at 10 µM: n=2, read-out: % of residual activity Hs_DYRK1A
T8 construct: host or cells: Sf9 insect cells (baculovirus)

Hs_CDK9/CyclinT = target: T9, Hs_CDK9/CyclinT (Homo sapiens, UniProt P50750); assay: ADP-Glo kinase assay, primary screen; assay type: biochemical; conditions: n=2, read-out: % of residual activity Hs_CDK9/CyclinT
T9 construct: host or cells: Sf9 insect cells (baculovirus)
T9 sequence (P50750 whole entry): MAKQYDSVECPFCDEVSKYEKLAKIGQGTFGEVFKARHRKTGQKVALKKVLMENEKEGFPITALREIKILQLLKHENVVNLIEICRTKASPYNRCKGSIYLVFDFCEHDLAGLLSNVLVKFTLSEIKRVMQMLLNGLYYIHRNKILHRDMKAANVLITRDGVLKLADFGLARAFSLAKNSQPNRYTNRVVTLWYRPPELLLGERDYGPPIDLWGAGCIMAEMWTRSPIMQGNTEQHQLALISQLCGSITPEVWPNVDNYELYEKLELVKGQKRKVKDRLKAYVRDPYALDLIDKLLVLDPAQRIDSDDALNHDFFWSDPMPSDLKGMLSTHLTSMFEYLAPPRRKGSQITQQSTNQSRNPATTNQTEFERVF
T9 sequence (O60563 whole entry partner): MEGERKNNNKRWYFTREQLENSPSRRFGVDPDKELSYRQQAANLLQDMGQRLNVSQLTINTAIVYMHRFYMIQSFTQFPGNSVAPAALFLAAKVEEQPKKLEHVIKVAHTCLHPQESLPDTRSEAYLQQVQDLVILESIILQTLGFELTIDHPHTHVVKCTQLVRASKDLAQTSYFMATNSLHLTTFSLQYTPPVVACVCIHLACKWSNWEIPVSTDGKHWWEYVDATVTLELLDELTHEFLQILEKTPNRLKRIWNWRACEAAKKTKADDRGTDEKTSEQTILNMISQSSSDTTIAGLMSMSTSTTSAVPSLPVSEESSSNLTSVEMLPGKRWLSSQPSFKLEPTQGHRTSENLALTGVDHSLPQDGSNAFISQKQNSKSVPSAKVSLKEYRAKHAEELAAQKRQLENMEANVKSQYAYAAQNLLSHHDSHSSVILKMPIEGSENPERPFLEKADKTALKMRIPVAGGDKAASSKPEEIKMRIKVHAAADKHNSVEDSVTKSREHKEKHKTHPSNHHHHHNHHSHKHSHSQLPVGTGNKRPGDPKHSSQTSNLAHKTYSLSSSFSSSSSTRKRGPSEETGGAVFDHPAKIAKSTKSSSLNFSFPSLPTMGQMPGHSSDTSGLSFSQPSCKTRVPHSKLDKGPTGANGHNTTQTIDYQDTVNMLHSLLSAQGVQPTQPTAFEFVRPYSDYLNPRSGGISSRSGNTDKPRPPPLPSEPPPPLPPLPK

[7] = HCT116 cells (colorectal adenocarcinoma), read-out: Cytotoxic studies IC50 HCT116
[8] = MDA-MB-468 cells (breast carcinoma), read-out: Cytotoxic studies IC50 MDA-MB-468

T1 sequence (Q00535 whole entry): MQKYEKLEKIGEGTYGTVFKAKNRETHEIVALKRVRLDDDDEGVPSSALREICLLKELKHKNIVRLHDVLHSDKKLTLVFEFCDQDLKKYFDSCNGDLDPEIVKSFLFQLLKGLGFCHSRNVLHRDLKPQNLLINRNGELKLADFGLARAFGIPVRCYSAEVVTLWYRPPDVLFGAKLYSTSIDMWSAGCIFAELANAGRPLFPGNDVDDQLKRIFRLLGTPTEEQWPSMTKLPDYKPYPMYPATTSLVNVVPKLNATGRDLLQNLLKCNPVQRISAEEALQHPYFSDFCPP
T1 sequence (Q15078 99-307 partner limits assumed): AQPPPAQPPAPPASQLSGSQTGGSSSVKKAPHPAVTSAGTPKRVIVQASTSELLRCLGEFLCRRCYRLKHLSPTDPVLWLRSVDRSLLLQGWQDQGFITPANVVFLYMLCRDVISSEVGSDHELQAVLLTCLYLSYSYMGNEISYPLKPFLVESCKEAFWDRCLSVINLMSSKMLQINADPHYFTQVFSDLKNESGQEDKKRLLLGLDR

Compound | remaining activity at 1 µM (Hs_CDK5/p25) | remaining activity at 10 µM (Hs_CDK5/p25) | IC50 at 48 h [1] | remaining activity at 1 µM (Hs_CK1ε) | remaining activity at 10 µM (Hs_CK1ε) | IC50 at 48 h [2, 7] | IC50 at 48 h [2, 8] | remaining activity at 1 µM (Hs_HASPIN) | remaining activity at 10 µM (Hs_HASPIN) | remaining activity at 1 µM (Hs_GSK3β) | remaining activity at 10 µM (Hs_GSK3β) | remaining activity at 1 µM (Rn_DYRK1A) | remaining activity at 10 µM (Rn_DYRK1A) | IC50 at 48 h [3] | IC50 at 48 h [4] | IC50 at 48 h [5] | IC50 at 48 h [6] | remaining activity at 1 µM (MmCLK1) | remaining activity at 10 µM (MmCLK1) | remaining activity at 1 µM (Hs_PIM1) | also measured
CC(C)(C)OC(=O)N[C@H]1CC[C@@H](n2cc(COc3cccc4cnc(Nc5cccc(Cl)c5)nc34)nn2)CC1 [15a, tert-Butyl ((cis)-4-(4-(((2-((3-chlorophenyl)amino)quinazolin-8-yl)oxy)methyl)-1H-1,2,3-triazol-1-yl)cyclohexyl)carbamate] | ≥ 100% | 96% | > 25 µM | ≥ 100% | 97% | 7 µM | 18 µM | 92% | 74% | ≥ 100% | 86% | ≥ 100% | 97% | 3 µM | 23 µM | 7 µM | > 25 µM | 98% | 60% | 86% | remaining activity at 10 µM (Hs_PIM1): 74%; remaining activity at 1 µM (HsDYRK1A): 95%; remaining activity at 10 µM (HsDYRK1A): 63%; remaining activity at 1 µM (Hs_CDK9/CyclinT): 64%; remaining activity at 10 µM (Hs_CDK9/CyclinT): 55%
CC(C)(C)OC(=O)N[C@H]1CC[C@@H](n2cc(COc3cccc4cnc(Nc5cc(Cl)cc(Cl)c5)nc34)nn2)CC1 [15b, tert-Butyl ((cis)-4-(4-(((2-((3,5-dichlorophenyl)amino)quinazolin-8-yl)oxy)methyl)-1H-1,2,3-triazol-1-yl)cyclohexyl)carbamate] | ≥ 100% | 68% | > 25 µM | ≥ 100% | 81% | > 25 µM | > 25 µM | 89% | 58% | 93% | 57% | 95% | ≥ 100% | 8 µM | > 25 µM | 20 µM | 21 µM | 96% | 73% | 75% | remaining activity at 10 µM (Hs_PIM1): 73%; remaining activity at 1 µM (HsDYRK1A): ≥ 100%; remaining activity at 10 µM (HsDYRK1A): 74%; remaining activity at 1 µM (Hs_CDK9/CyclinT): 92%; remaining activity at 10 µM (Hs_CDK9/CyclinT): 61%
N[C@H]1CC[C@@H](n2cc(COc3cccc4cnc(Nc5cccc(Cl)c5)nc34)nn2)CC1 [16a, 8-((1-((cis)-4-Aminocyclohexyl)-1H-1,2,3-triazol-4-yl)methoxy)-N-(3-chlorophenyl)quinazolin-2-amine hydrochloride] | 75% | 36% | 9 µM | 87% | 21% | 10 µM | 9 µM | 72% | 31% | 32% | 49% | 82% | 33% | 9 µM | 8 µM | 8 µM | 9 µM | 17% | 8% | 54% | IC50 (MmCLK1; mouse CLK1 orthologue, read-out: IC50 MmCLK1): 0.22 µM; remaining activity at 10 µM (Hs_PIM1): 14%; remaining activity at 1 µM (HsDYRK1A): 84%; IC50 (HsDYRK1A; 10 µM ATP, duplicate): 2.76 µM; remaining activity at 10 µM (HsDYRK1A): 36%; remaining activity at 1 µM (Hs_CDK9/CyclinT): 68%; remaining activity at 10 µM (Hs_CDK9/CyclinT): 12%
